Where two headings read alike, the source gives them in different places.
Key:
[1] = Toxicity of chemotherapy, radioimmunotherapy and combination therapy by weight loss (FIG. 8); set-up: species or system Swiss nude mice; details: Swiss nude, mouse, in vivo, intravenous; together with Leucovorin at 120 mg/kg
[2] = cited from earlier work
[3] = system: Colau.C35 tumor cells; assay: Combination radioimmunotherapy and chemotherapy, second experiment (FIG. 6, Table 6); type: in vivo, Swiss nude mice
Experimental: Swiss nude mice were grafted with Colau.C35 cells on day 0. Chemotherapy: Cisplatin administered at 2 mg/kg i.v. on days 15 & 18; 5FU/LV administered at 180/120 mg/kg i.v. on day 18.
Cispaltin was administered on days 15 and 18 following tumor graft. […] Tumor growth was followed for up to 10 weeks.

[4] = system: 21MT1 tumor cells; assay: C35 surface staining following drug induced apoptosis (flow cytometry); type: cell-based
Experimental: 24 hours following treatment with 0.5 uM Taxol™, 21MT1 tumor cells were stained with annexin V-FITC, propidium iodide, and with either 100 ng anti-C35 antibody 1F2 (dark line) or isotype control (grey fill) antibody. Both antibodies were directly conjugated to Alexa-647. Histograms were gated on the cells undergoing apoptosis (annexinV positive/PI negative). Antibodies were pre-incubated with PAB buffer (FIG. 3A), 100-fold molar excess recombinant C35 protein (FIG. 3B), or 100-fold molar excess β-galactosidase protein (FIG. 3C).
A line of continuously growing breast tumor cells that express the C35 tumor antigen was either treated with 6 ug/ml mitomycin C or left untreated. After continued in vitro culture for 48 hours to allow apoptosis to develop, cells were harvested, washed and stained with 50 ng of 1F2 monoclonal anti-C35 antibody or a mouse IgG antibody control each conjugated to the fluorescent dye Alexa 647. Following 50 minutes incubation at 25° C., cells were stained with Annexin V and propidium iodide (PI) using a standard commercial kit (Pharmingen). Cells were analyzed for staining with Annexin V, propidium iodide and Alexa 647 by flow cytometry employing standard protocols.

[5] = system: rabbit anti-human C35 polyclonal antibody; assay: ELISA of rabbit C35 immune serum on plates coated with C35 15-mer peptides; type: binding
[6] = literature values, schedule as in table
[7] = non-toxic dose at indicated schedule (dose of column Dose + RIT)
[8] = 14 μg/ml peptide coated plates, 100 ng/ml primary antibody
[9] = 40 μg/ml peptide coated plates, 1 μg/ml primary antibody

| Molecule | Absorbance @ 450-570 nm [5, 8] | Absorbance @ 450-570 nm [5, 9] | other results |
| --- | --- | --- | --- |
| O=c1[nH]cc(F)c(=O)[nH]1 [5-FluoroUracil] | – | – | MTD [1]: 180 mg/kg |
| N.N.[Cl][Pt][Cl] [Cisplatin] | – | – | Maximum Tolerated Dose [2, 6]: 4 mg/kg; TDD = Tumor doubling delay ([3]; T − C/tumor volume doubling time of untreated): 0.66; LCK = Log Cell Kill ([3]; TDD/3.32): 0.20; Colau.C35 tumor growth (FIG. 6) ([3]; cisplatin 2 mg/kg days 15, 18, 5FU/LV 180/120 mg/kg day 18, 300 μCi ^131I-1B3 day 21): some inhibition; T − C: difference in time for treated and control tumors to reach a given volume ([3]; volume 1200 mm^3): 5 days |
| O=P1(N(CCCl)CCCl)NCCCO1 (centres unmarked) [Cyclophosphamide] | – | – | Maximum Tolerated Dose [2, 7]: No toxicity ^2 |
| Nc1ccn([C@@H]2O[C@H](CO)[C@@H](O)C2(F)F)c(=O)n1 [Gemcitabine] | – | – | Maximum Tolerated Dose [2, 7]: No toxicity ^5 |
| O=C1[O][Pt]2([NH][C@@H]3CCCC[C@H]3[NH]2)[O]C1=O [Oxaliplatin] | – | – | Maximum Tolerated Dose [2, 6]: 5 mg/kg |
| CC(=O)O[C@H]1C(=O)[C@@]2(C)[C@H]([C@H](OC(=O)c3ccccc3)[C@]3(O)C[C@H](OC(=O)[C@H](O)[C@@H](NC(=O)c4ccccc4)c4ccccc4)C(C)=C1C3(C)C)[C@]1(OC(C)=O)CO[C@@H]1C[C@@H]2O [Taxol, paclitaxel] | – | – | Maximum Tolerated Dose [2, 7]: No toxicity ^2; induction of apoptosis and C35 surface exposure ([4]; 0.5 uM, 24 hours, stained with 1F2): induces apoptosis, resulting in exposure of C35 on the surface of apoptotic tumor cells |
| CO[C@@]12[C@H](COC(N)=O)C3=C(C(=O)C(C)=C(N)C3=O)N1C[C@@H]1N[C@@H]12 [mitomycin C] | – | – | C35 surface staining of treated cells undergoing apoptosis ([4]; 6 ug/ml, 48 hours, PI negative, Annexin V positive cells): clearly differentially stained with anti-C35 antibodies as compared to isotype control antibody |
| AFEIEINGQLVFSKL [P64] | 0.055 | 0.423 | – |
| AIRRASNGETLEKIT [P92] | 0.04 | 0.267 | – |
| APPPEEVEPGSGVRI [P11] | 1.526 | 3.317 | – |
| DLIEAIRRASNGETL [P88] | 0.025 | 0.135 | – |
| EAIRRASNGETLEKI [P91] | 0.023 | 0.144 | – |
| EEVEPGSGVRIVVEY [P15] | 0.039 | 0.334 | – |
| EIEINGQLVFSKLEN [P66] | 0.028 | 0.182 | – |
| EKDLIEAIRRASNGE [P86] | 0.023 | 0.166 | – |
| EPGQTSVAPPPEEVE [P4] | 1.254 | 3.282 | – |
| ETLEKITNSRPPAVI [P100] | 0.017 | 0.124 | – |
| EVEPGSGVRIVVEYA [P16] | 0.027 | 0.172 | – |
| FEIEINGQLVFSKLE [P65] | 0.043 | 0.269 | – |
| FPYEKDLIEAIRRAS [P83] | 0.025 | 0.19 | – |
| GAFEIEINGQLVFSK [P63] | 0.079 | 0.557 | – |
| GEPGQTSVAPPPEEV [P3] | 1.458 | 3.349 | – |
| GETLEKITNSRPPAV [P99] | 0.026 | 0.18 | – |
| GFPYEKDLIEAIRRA [P82] | 0.02 | 0.18 | – |

| Molecule | Absorbance @ 450-570 nm [5, 8] | Absorbance @ 450-570 nm [5, 9] | other results |
| --- | --- | --- | --- |
| GGFPYEKDLIEAIRR [P81] | 0.032 | 0.204 | – |
| GQTSVAPPPEEVEPG [P6] | 2.483 | 3.381 | – |
| IEAIRRASNGETLEK [P90] | 0.04 | 0.403 | – |
| IRRASNGETLEKITN [P93] | 0.051 | 0.389 | – |
| LIEAIRRASNGETLE [P89] | 0.015 | 0.053 | – |
| MSGEPGQTSVAPPPE [P1] | 0.257 | – | – |
| NGETLEKITNSRPPA [P98] | 0.035 | 0.213 | – |
| NGGFPYEKDLIEAIR [P80] | 0.018 | 0.1 | – |
| PEEVEPGSGVRIVVE [P14] | 0.127 | 0.972 | – |
| PGQTSVAPPPEEVEP [P5] | 2.719 | 3.383 | – |
| PPEEVEPGSGVRIVV [P13] | 0.385 | 2.522 | – |
| PPPEEVEPGSGVRIV [P12] | 0.836 | – | – |
| PYEKDLIEAIRRASN [P84] | 0.037 | 0.391 | – |
| QTSVAPPPEEVEPGS [P7] | 2.635 | 3.388 | – |
| RASNGETLEKITNSR [P95] | 0.062 | 0.462 | – |
| RRASNGETLEKITNS [P94] | 0.061 | 0.526 | – |
| SGEPGQTSVAPPPEE [P2] | 0.108 | 1.227 | – |
| SNGETLEKITNSRPP [P97] | 0.046 | 0.373 | – |
| SVAPPPEEVEPGSGV [P9] | 2.31 | 3.367 | – |
| TGAFEIEINGQLVFS [P62] | 0.023 | 0.107 | – |
| TLEKITNSRPPAVIL [P101] | 0.472 | 2.519 | – |
| TSVAPPPEEVEPGSG [P8] | 0.059 | 0.394 | – |
| VAPPPEEVEPGSGVR [P10] | 1.736 | 3.407 | – |
| YEKDLIEAIRRASNG [P85] | 0.024 | 0.179 | – |

From patent publication US20080305111A1, “Anti-C35 antibodies for treating cancer” (VACCINEX, INC., priority 2006, published 2008)
